These results are taken from publication PMC5770336, “Characterisation of endogenous A2A and A2B receptor-mediated cyclic AMP responses in HEK 293 cells using the GloSensor™ biosensor: Evidence for an allosteric mechanism of action for the A2B-selective antagonist PSB 603” (Biochemical Pharmacology, 2018).

The Ki is a measure of affinity in units of concentration, obtained from inhibition or displacement. As usually defined, the IC50 is the concentration needed to halve the response being measured. In general, pIC50 refers to −log10 of the IC50, conventionally taken in molar units. Read a high pIC50 as a small IC50. By EC50 is commonly meant the concentration giving half of the maximal effect. A high value points to a need for much substance. Usually Emax stands for the size of the effect at its maximum, as opposed to the concentration needed.

“And” between values parts separate entries of the source, which are not always exact repeats. Equal entries are not always repeated. “Also recorded” adds a separate entry of the source. Where two headings read alike, the source gives them in different places.

The target in test [1] is T1, A2BAR (Homo sapiens, UniProt P29275).
T1 construct: Gs-coupled A2BARs endogenously expressed in HEK293 cells; host or cells: HEK293G (HEK293 stably expressing the GloSensor 20F cAMP biosensor)
T1 sequence (P29275 1-332): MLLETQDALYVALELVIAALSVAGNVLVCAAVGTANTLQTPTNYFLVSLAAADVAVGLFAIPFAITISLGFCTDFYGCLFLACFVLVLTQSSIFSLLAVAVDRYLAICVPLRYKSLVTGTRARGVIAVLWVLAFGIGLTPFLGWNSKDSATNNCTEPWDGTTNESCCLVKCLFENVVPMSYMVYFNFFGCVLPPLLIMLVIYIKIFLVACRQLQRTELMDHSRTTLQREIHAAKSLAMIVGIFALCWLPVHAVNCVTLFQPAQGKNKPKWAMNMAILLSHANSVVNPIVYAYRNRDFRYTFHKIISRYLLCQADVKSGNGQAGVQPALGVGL
As to the kind of experiment: GloSensor cAMP luminescence assay in HEK293G cells, endogenous A2BAR-mediated responses (NECA, adenosine, BAY 60-6583). The format is cell-based. To be noted: for inhibition of the response to 10 µM NECA (in words) / IC50 / pIC50: 30 min pre-incubation; for inhibition of the response to 10 µM NECA (in words): antagonist up to 10 µM; for mode of antagonism (in words): agonist concentration-response curves with increasing antagonist; for antagonism of the response to BAY 60-6583 (in words): 1 μM BAY 60-6583; for -Log KB / Kb: apparent KB, modified Gaddum equation. How it is done:
(§1) The cAMP GloSensor™ (20F) biosensor [26] expressed in HEK293 (HEK293G) cells was obtained from Promega (Madison, WI). HEK293G cells were maintained in Dulbecco modified eagles medium (DMEM) supplemented with 2 mM L-glutamine, 10% FCS (fetal calf serum) and 200 μg/ml hygromycin B at 37 °C 5% CO2. […] For the GloSensor™ assay, cells were re-suspended in DMEM supplemented with 2 mM L-glutamine and 10% FCS and seeded at a density of 35000 cells/well on poly-l-lysine treated clear bottomed white walled 96 well plates. Cells were incubated at 37°C 5% CO2 overnight prior to assay.
(§2) The GloSensor™ assay was carried out as per manufacturer’s instructions (Promega, Madison, WI, USA). […] Agonist concentration response curves were simultaneously obtained (in the absence of antagonist).

Test [2] deals with T2, A2AAR (Homo sapiens, UniProt P29274).
T2 construct: We also provide evidence for a minor population of endogenous A2AAR in this cell line; host or cells: HEK293G (HEK293 stably expressing the GloSensor 20F cAMP biosensor)
T2 sequence (P29274 whole entry): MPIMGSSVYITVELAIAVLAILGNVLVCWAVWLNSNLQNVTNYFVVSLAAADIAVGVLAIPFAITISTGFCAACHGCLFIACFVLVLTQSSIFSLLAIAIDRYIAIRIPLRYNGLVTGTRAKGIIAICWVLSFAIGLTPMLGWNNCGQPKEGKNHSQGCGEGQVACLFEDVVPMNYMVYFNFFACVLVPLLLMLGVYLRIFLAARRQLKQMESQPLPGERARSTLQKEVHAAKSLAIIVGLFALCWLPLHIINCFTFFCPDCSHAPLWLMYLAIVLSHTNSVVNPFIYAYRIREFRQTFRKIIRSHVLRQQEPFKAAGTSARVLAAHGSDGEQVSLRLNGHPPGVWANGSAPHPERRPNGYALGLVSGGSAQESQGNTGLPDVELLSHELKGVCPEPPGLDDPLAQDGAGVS
Briefly: GloSensor cAMP luminescence assay in HEK293G cells, endogenous A2AAR-mediated responses (CGS 21680). The test is classed as cell-based. As for the experimental part: as §1, §2

Test [3] deals with A2BAR. To be noted: cited from earlier work.
For test [4], the target named is A2AAR. To be noted: cited from earlier work.
Test [5] relates to adenylyl cyclase. As to the kind of experiment: Forskolin-stimulated GloSensor cAMP luminescence in HEK293G cells. The format is cell-based, human. The note with it: forskolin concentration-response curves, PSB 603 up to 300 nM. As for the experimental part: The cAMP GloSensor™ (20F) biosensor [26] expressed in HEK293 (HEK293G) cells was obtained from Promega (Madison, WI). HEK293G cells were maintained in Dulbecco modified eagles medium (DMEM) supplemented with 2 mM L-glutamine, 10% FCS (fetal calf serum) and 200 μg/ml hygromycin B at 37 °C 5% CO2. Once confluent, cells were dislodged from the flask surface by gentle shaking after incubation in 0.25% trypsin and cell pellet formed following 5 min 1000 g centrifugation. For the GloSensor™ assay, cells were re-suspended in DMEM supplemented with 2 mM L-glutamine and 10% FCS and seeded at a density of 35000 cells/well on poly-l-lysine treated clear bottomed white walled 96 well plates. Cells were incubated at 37°C 5% CO2 overnight prior to assay.
The GloSensor™ assay was carried out as per manufacturer’s instructions (Promega, Madison, WI, USA).

The mark [6] stands for this setting: antagonism of BAY 60-6583 (1 µM) response, HEK293G.
Where [7] appears, read: antagonism of NECA (10 µM) response, HEK293G.
The mark [8] stands for this setting: antagonism of adenosine (10 µM) response, HEK293G.

For the compound `Nc1nc(NCCc2ccc(O)cc2)nc2nc(-c3ccco3)nn12` [ZM 241385, 4-(2-[7-Amino-2-(2-furyl)[1,2,4]triazolo[2,3-a][1,3,5]triazin-5-ylamino]ethyl)phenol], in test [1], the “inhibition of the response to 10 µM NECA (in words)” value was “complete inhibition” and the “mode of antagonism (in words)” value is “competitive interaction”.

On to `Nc1nc2c(cnn2CCc2ccccc2)c2nc(-c3ccco3)nn12` [SCH 58261, 2-(2-Furanyl)-7-(2-phenylethyl)-7H-pyrazolo [4,3-e][1,2,4] triazolo[1,5-c]pyrimidin-5-amine], for which, in test [1], the “antagonism of the response to BAY 60-6583 (in words)” value is listed as “weak antagonist” and the “inhibition of the response to 10 µM NECA (in words)” value was “failed to inhibit”. In test [1] (highest concentration tested, not statistically significant), the “inhibition of the adenosine response” value is “approximately 35%”. The “antagonism of the CGS 21680 response (in words)” value in test [2] is given as “complete concentration-dependent antagonism”. The Ki in test [3] was 5010 nM.

As to `CCCn1c(=O)[nH]c2nc(-c3ccc(S(=O)(=O)N4CCN(c5ccc(Cl)cc5)CC4)cc3)[nH]c2c1=O` [PSB 603], the figures for the Ki in test [4] and in test [3] were more than 10 µM and 0.5 nM, respectively. In addition, the “antagonism of the response to BAY 60-6583 (in words)” value in test [1] is “completely abolish the response”. In test [1] (10 µM NECA, % of the maximal response to NECA), the “maximal inhibition of the NECA response” value is 81.7 ± 2.4% and 80%. Besides, the “inhibition of the response to 10 µM adenosine” value in test [1] (10 µM antagonist) was 80.5 ± 3.0% and 80%. Moreover, the “mode of antagonism (in words)” value in test [1] is on record as “non-competitive antagonism”. For the same compound, the IC50 was 17.4 nM in test [1] (setting [6]), 49.8 nM in test [1] (setting [7]) and 141 nM in test [1] (setting [8]). Moreover, the pIC50 is 7.86 ± 0.13 in test [1] (setting [6]), 7.53 ± 0.22 in test [1] (setting [7]) and 7.56 ± 0.43 in test [1] (setting [8]). Also, the “-Log KB” value in test [1] (agonist BAY 60-6583 (1 µM)) was 8.55 ± 0.13; in test [1] (agonist NECA (10 µM)), 8.50 ± 0.22; in test [1] (agonist adenosine (10 µM)), 7.89 ± 0.43. Moreover, the Kb in test [1] (agonist BAY 60-6583 (1 µM)) is 3.6 nM; in test [1] (agonist NECA (10 µM)) it was 5.3 nM; in test [1] (agonist adenosine (10 µM)) it was 66.3 nM. In addition, in test [1] (limiting level of antagonism, kinetic profile, 10 μM NECA), the “residual peak response to NECA” value is “circa 20%”. Also, in test [2] (1 μM CGS 21680, competition curves), the “antagonism of the CGS 21680 response (in words)” value is listed as “unable to inhibit; also recorded: not affected”. Further, the “effect of pre-incubation on CGS 21680 concentration-response curves (in words)” value in test [2] (PSB 603 up to 300 nM) is reported as “did not affect; also recorded: completely unaffected”. The “effect of pre-incubation on the response to forskolin (in words)” value in test [5] is “did not affect; also recorded: completely unaffected”.

For `N#Cc1c(N)nc(SCC(N)=O)c(C#N)c1-c1ccc(OCC2CC2)cc1` [BAY 60-6583, 2-[[6-Amino-3,5-dicyano-4-[4-(cyclopropylmethoxy)phenyl]-2-pyridinyl]thio]-acetamide], the EC50 is 407 nM in test [1] (BAY 60-6583 pEC50, PSB 603 0 nM); 1580 nM in test [1] (BAY 60-6583 pEC50, PSB 603 30 nM); 4570 nM in test [1] (BAY 60-6583 pEC50, PSB 603 100 nM); more than 30000 nM in test [1] (BAY 60-6583 pEC50, PSB 603 300 nM); 380 nM in test [1] (BAY 60-6583 pEC50, XAC 0 nM); 1320 nM in test [1] (BAY 60-6583 pEC50, XAC 100 nM). The EC50 was 2240 nM in test [1] (BAY 60-6583 pEC50, XAC 300 nM); 9330 nM in test [1] (BAY 60-6583 pEC50, XAC 1000 nM); 347 nM in test [1] (BAY 60-6583 pEC50, ZM 241385 0 nM); 1410 nM in test [1] (BAY 60-6583 pEC50, ZM 241385 100 nM); 2140 nM in test [1] (BAY 60-6583 pEC50, ZM 241385 300 nM); 7240 nM in test [1] (BAY 60-6583 pEC50, ZM 241385 1000 nM). In test [1] (agonist pEC50, cAMP Glosensor luminescence, peak luminescence, HEK 293 cells, no antagonist (Fig. 4)), this compound had an EC50 of 646 nM. Also, the Emax at 0.03 µM in test [1] (HEK293G, read-out: BAY 60-6583 Emax, PSB 603 30 nM, percentage of response to 10 µM BAY 60-6583) was determined as 82.2 ± 1.64%. The Emax at 0.1 µM in test [1] (HEK293G, read-out: BAY 60-6583 Emax, PSB 603 100 nM, percentage of response to 10 µM BAY 60-6583) worked out at 68.7 ± 6.78%; in test [1] (HEK293G, read-out: BAY 60-6583 Emax, ZM 241385 100 nM, percentage of response to 10 μM BAY 60-6583), 99 ± 7.14%. For the same compound, the Emax at 0.3 µM is 99.3 ± 26.6% in test [1] (HEK293G, read-out: BAY 60-6583 Emax, PSB 603 300 nM, percentage of response to 10 µM BAY 60-6583) and 80.8 ± 8.36% in test [1] (HEK293G, read-out: BAY 60-6583 Emax, ZM 241385 300 nM, percentage of response to 10 μM BAY 60-6583). Moreover, the Emax worked out at 104 ± 5.27% in test [1] (HEK293G, read-out: BAY 60-6583 Emax, XAC 0 nM, percentage of response to 10 μM BAY 60-6583); 96.6 ± 4.8% in test [1] (HEK293G, read-out: BAY 60-6583 Emax, XAC 100 nM, percentage of response to 10 μM BAY 60-6583); 85.6 ± 5.04% in test [1] (HEK293G, read-out: BAY 60-6583 Emax, XAC 300 nM, percentage of response to 10 μM BAY 60-6583); 55.9 ± 7.86% in test [1] (HEK293G, read-out: BAY 60-6583 Emax, XAC 1000 nM, percentage of response to 10 μM BAY 60-6583). Also, the Emax at 1 µM in test [1] (HEK293G, read-out: BAY 60-6583 Emax, ZM 241385 1000 nM, percentage of response to 10 μM BAY 60-6583) amounted to 54.1 ± 8.41%. Further, the “BAY 60-6583 Emax” value in test [1] (PSB 603 0 nM, percentage of response to 10 µM BAY 60-6583) was found to be 104.40 ± 5.14%; in test [1] (ZM 241385 0 nM, percentage of response to 10 μM BAY 60-6583) it was 100.80 ± 4.61%. Also, the “agonist efficacy (in words)” value in test [1] (relative to adenosine and NECA, HEK293G) is reported as “partial agonist”.
